`COc1ccc(C#Cc2cnn3c(C4CC4)cc(-c4ccc(C(F)(F)F)cc4)nc23)cc1S(=O)(=O)NC(C)(C)CO` [Example 81, 5-[7-Cyclopropyl-5-(4-trifluoromethyl-phenyl)-pyrazolo[1,5-a]pyrimidin-3-ylethynyl]-N-(2-hydroxy-1,1-dimethyl-ethyl)-2-methoxy-benzenesulfonamide] gave a melting point of 192 to 195 °C. Next, `CC(C)(CO)NS(=O)(=O)c1ccc(C#Cc2cnn3c(C(F)F)cc(-c4ccc(C(F)(F)F)cc4)nc23)s1` [Example 169, 5-[7-Difluoromethyl-5-(4-trifluoromethyl-phenyl)-pyrazolo[1,5-a]pyrimidin-3-ylethynyl]-thiophene-2-sulfonic acid (2-hydroxy-1,1-dimethyl-ethyl)-amide]: 157 °C; `Cc1cc(-c2cc(C(F)(F)F)n3ncc(C#Cc4cccc(S(=O)(=O)NC(C)(C)CO)c4)c3n2)ccc1Cl` [Example 102, 3-[5-(4-Chloro-3-methyl-phenyl)-7-trifluoromethyl-pyrazolo[1,5-a]pyrimidin-3-ylethynyl]-N-(2-hydroxy-1,1-dimethyl-ethyl)-benzenesulfonamide]: 204 °C; `Cc1cc(-c2cc(C(F)(F)F)n3ncc(C#Cc4ccc(S(=O)(=O)N5CCN(C)CC5)s4)c3n2)ccc1Cl` [Example 258, 5-(4-Chloro-3-methyl-phenyl)-3-[5-(4-methyl-piperazine-1-sulfonyl)-thiophen-2-ylethynyl]-7-trifluoromethyl-pyrazolo[1,5-a]pyrimidine]: 229 °C.

Take `Cc1cc(-c2ccc(C(F)(F)F)cc2)cn2c(C#Cc3cncc(S(=O)(=O)NC(C)(C)CO)c3)cnc12` [Example 228, 5-[8-Methyl-6-(4-trifluoromethyl-phenyl)-imidazo[1,2-a]pyridin-3-ylethynyl]-pyridine-3-sulfonic acid (2-hydroxy-1,1-dimethyl-ethyl)-amide]: the melting point worked out at 189 °C. Compound `NS(=O)(=O)c1ccc(C#Cc2cnc3c(C(F)(F)F)cc(-c4ccc(C(F)(F)F)cc4)nn23)s1` [Example 236, 5-[8-Trifluoromethyl-6-(4-trifluoromethyl-phenyl)-imidazo[1,2-b]pyridazin-3-ylethynyl]-thiophene-2-sulfonic acid amide] came in with a melting point of 261 to 263 °C. On to `O=S(=O)(c1ccc(C#Cc2cnn3c(C(F)(F)F)cc(-c4cccc(C(F)(F)F)c4)nc23)s1)N(CCO)CCO` [Example 266, 5-[7-Trifluoromethyl-5-(3-trifluoromethyl-phenyl)-pyrazolo[1,5-a]pyrimidin-3-ylethynyl]-thiophene-2-sulfonic acid bis-(2-hydroxy-ethyl)-amide], for which the melting point is 129 °C. With `Cc1cc(-c2cc(C(F)(F)F)n3ncc(C#Cc4cc(S(N)(=O)=O)c(F)cc4F)c3n2)ccc1Cl` [Example 111, 5-[5-(4-Chloro-3-methyl-phenyl)-7-trifluoromethyl-pyrazolo[1,5-a]pyrimidin-3-ylethynyl]-2,4-difluoro-benzenesulfonamide] the figure was 294 °C; with `NS(=O)(=O)c1cc(C#Cc2cnn3c(C4CC4)cc(-c4ccc(Cl)cc4)nc23)c(F)cc1F` [Example 70, 5-[5-(4-Chloro-phenyl)-7-cyclopropyl-pyrazolo[1,5-a]pyrimidin-3-ylethynyl]-2,4-difluoro-benzenesulfonamide], 272 to 275 °C. With `CC(C)(O)c1ccc(C#Cc2cnn3c(CO)cc(-c4ccc(Cl)cc4)nc23)cc1` [Example 299, 2-{4-[5-(4-Chloro-phenyl)-7-hydroxymethyl-pyrazolo[1,5-a]pyrimidin-3-ylethynyl]-phenyl}-propan-2-ol] the figure was 118 to 120 °C; with `NS(=O)(=O)c1cc(C#Cc2cnn3c(C(F)(F)F)cc(-c4cccc(C(F)(F)F)c4)nc23)c(F)cc1F` [Example 116, 2,4-Difluoro-5-[7-trifluoromethyl-5-(3-trifluoromethyl-phenyl)-pyrazolo[1,5-a]pyrimidin-3-ylethynyl]-benzenesulfonamide], 264 °C; with `NS(=O)(=O)c1cc(C#Cc2cnn3c(C4CC4)cc(-c4ccc(C(F)(F)F)cc4)nc23)c(F)cc1F` [Example 77, 5-[7-Cyclopropyl-5-(4-trifluoromethyl-phenyl)-pyrazolo[1,5-a]pyrimidin-3-ylethynyl]-2,4-difluoro-benzenesulfonamide], 255 to 257 °C. With `CC(C)(C)c1cc(-c2ccc(Cl)cc2)nc2c(C#Cc3ccc(S(N)(=O)=O)s3)cnn12` [Example 307, 5-[7-tert.-Butyl-5-(4-chloro-phenyl)-pyrazolo[1,5-a]pyrimidin-3-ylethynyl]-thiophene-2-sulfonic acid amide] the figure was 253 to 255 °C; with `Cc1cc(-c2cc(C(F)F)n3ncc(C#Cc4ccc(S(=O)(=O)NC(C)(C)C)s4)c3n2)ccc1Cl` [Example 171, 5-[5-(4-Chloro-3-methyl-phenyl)-7-difluoromethyl-pyrazolo[1,5-a]pyrimidin-3-ylethynyl]-thiophene-2-sulfonic acid tert-butylamide], 220 °C. `Cc1nc(C#Cc2cnn3c(C(F)(F)F)cc(-c4ccc(C(F)(F)F)cc4)nc23)sc1S(N)(=O)=O` [Example 54, 4-Methyl-2-[7-trifluoromethyl-5-(4-trifluoromethyl-phenyl)-pyrazolo[1,5-a]pyrimidin-3-ylethynyl]-thiazole-5-sulfonic acid amide] registered a melting point of 245 to 246 °C. Compound `NS(=O)(=O)c1cccc(C#Cc2cnn3c(C(F)F)cc(-c4ccc(C(F)(F)F)cc4)nc23)c1` [Example 42, 3-[7-Difluoromethyl-5-(4-trifluoromethyl-phenyl)-pyrazolo[1,5-a]pyrimidin-3-ylethynyl]-benzenesulfonamide] gave a melting point of 246 to 247 °C. Consider `Nc1ccc(C#Cc2cnn3c(C4CC4)cc(-c4ccc(C(F)(F)F)cc4)nc23)cn1` [Example 293, 5-[7-Cyclopropyl-5-(4-trifluoromethyl-phenyl)-pyrazolo[1,5-a]pyrimidin-3-ylethynyl]-pyridin-2-ylamine], for which the melting point fell in the range of 228 to 231 °C. With `FC(F)(F)c1ccc(-c2cc(C(F)(F)F)n3ncc(C#Cc4cnc(Cl)nc4)c3n2)cc1` [Example 182, 3-(2-Chloro-pyrimidin-5-ylethynyl)-7-trifluoromethyl-5-(4-trifluoromethyl-phenyl)-pyrazolo[1,5-a]pyrimidine] the figure was 157 to 159 °C. Next, `CC(C)(C)NS(=O)(=O)c1cccc(C#Cc2cnn3c(C(F)(F)F)cc(-c4ccc(C(F)(F)F)cc4)nc23)c1` [Example 24, N-tert-Butyl-3-[7-trifluoromethyl-5-(4-trifluoromethyl-phenyl)-pyrazolo[1,5-a]pyrimidin-3-ylethynyl]-benzenesulfonamide]: 192 to 200 °C; `Cc1cc(-c2ccc(C(F)(F)F)cc2)nc2c(C#Cc3ccc(S(=O)(=O)NC(CO)CO)s3)cnn12` [Example 308, 5-[7-Methyl-5-(4-trifluoromethyl-phenyl)-pyrazolo[1,5-a]pyrimidin-3-ylethynyl]-thiophene-2-sulfonic acid (2-hydroxy-1-hydroxymethyl-ethyl)-amide]: 148 to 152 °C. As to `Cc1cc(-c2cc(C(F)(F)F)n3ncc(C#Cc4ncc(S(=O)(=O)NC(C)(C)CO)s4)c3n2)ccc1Cl` [Example 106, 2-[5-(4-Chloro-3-methyl-phenyl)-7-trifluoromethyl-pyrazolo[1,5-a]pyrimidin-3-ylethynyl]-thiazole-5-sulfonic acid (2-hydroxy-1,1-dimethyl-ethyl)-amide], the melting point was 217 °C. Next, `FC(F)(F)c1ccc(-c2cc(C(F)(F)F)n3ncc(C#Cc4ccnc(Cl)n4)c3n2)cc1` [Example 183, 3-(2-Chloro-pyrimidin-4-ylethynyl)-7-trifluoromethyl-5-(4-trifluoromethyl-phenyl)-pyrazolo[1,5-a]pyrimidine]: 192 to 195 °C; `Nc1ccc(C#Cc2cnn3c(C(F)(F)F)cc(-c4ccc(C(F)(F)F)cc4)nc23)nn1` [Example 246, 6-[7-Trifluoromethyl-5-(4-trifluoromethyl-phenyl)-pyrazolo[1,5-a]pyrimidin-3-ylethynyl]-pyridazin-3-ylamine]: 214 to 216 °C; `Fc1ccc(C#Cc2cnn3c(C(F)(F)F)cc(-c4ccc(C(F)(F)F)cc4)nc23)cn1` [Example 149, 3-(6-Fluoro-pyridin-3-ylethynyl)-7-trifluoromethyl-5-(4-trifluoromethyl-phenyl)-pyrazolo[1,5-a]pyrimidine]: 213 to 216 °C.

`NC(=O)c1ccc(C#Cc2cnn3c(C(F)F)cc(-c4ccc(C(F)(F)F)cc4)nc23)cn1` [Example 206, 5-[7-Difluoromethyl-5-(4-trifluoromethyl-phenyl)-pyrazolo[1,5-a]pyrimidin-3-ylethynyl]-pyridine-2-carboxylic acid amide] displayed a melting point of 276 to 277 °C. With `Cc1nc(N)ccc1C#Cc1cnn2c(C(F)F)cc(-c3ccc(C(F)(F)F)cc3)nc12` [Example 143, 5-[7-Difluoromethyl-5-(4-trifluoromethyl-phenyl)-pyrazolo[1,5-a]pyrimidin-3-ylethynyl]-6-methyl-pyridin-2-ylamine] the figure was 243 to 246 °C.

By melting point is commonly meant the temperature, or range, at which the solid turns liquid.

(Values after US8063048B2, “Acetylenyl-pyrazolo-pyrimidine derivatives” (Hoffmann-La Roche Inc., priority 2005, dated 2011).)
